According to patent US20100041089A1, “IMPROVED METHOD FOR DETECTING CHEMICAL […]” (priority 2006, published 2010):

Tested on: yeast genes (expressed mRNA)
Assay: DNA chip measurement of expressed mRNA of yeast genes after culture with a toxic chemical substance
Type: cell-based, Saccharomyces cerevisiae S288C
Conditions: for level of expressed mRNA in the presence of chemical substance / level in the absence of chemical substance: cultured two hours with the chemical substance; for The level of expressed mRNA in the presence of chemical substance/The level of expressed mRNA in the absence of chemical substance: cultured two hours with substance
In short: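 S. cerevisiae S288C grown at 25 °C in YPD, exposed in log phase for 2 h to a toxicant at growth-inhibiting, non-lethal concentration. Cy3/Cy5-labelled cDNA from poly(A) mRNA hybridized to whole-genome chip at 65 °C >12 h. Ratio to untreated control, ≥2 significant.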

Na2As [(1)]
The level of expressed mRNA in the presence of chemical substance/The level of expressed mRNA in the absence of chemical substance, yeast gene YBR036C (gene YBR036C, Metabolism protein genes, DNA chip fluorescence ratio): 0.8 | The level of expressed mRNA in the presence of chemical substance/The level of expressed mRNA in the absence of chemical substance, yeast gene YBR298C (gene YBR298C, Metabolism protein genes, DNA chip fluorescence ratio): 1.1 | The level of expressed mRNA in the presence of chemical substance/The level of expressed mRNA in the absence of chemical substance, yeast gene YDL067C (gene YDL067C (mitochondria-located protein gene), yeast cultured two hours with chemical substance, DNA chip fluorescence ratio to control): 1.8 | The level of expressed mRNA in the presence of chemical substance/The level of expressed mRNA in the absence of chemical substance, yeast gene YDL078C (gene YDL078C, Metabolism protein genes, DNA chip fluorescence ratio): 0.7 | The level of expressed mRNA in the presence of chemical substance/The level of expressed mRNA in the absence of chemical substance, yeast gene YDL215C (gene YDL215C, Metabolism protein genes, DNA chip fluorescence ratio): 1.0 | The level of expressed mRNA in the presence of chemical substance/The level of expressed mRNA in the absence of chemical substance, yeast gene YDR079W (gene YDR079W (mitochondria-located protein gene), yeast cultured two hours with chemical substance, DNA chip fluorescence ratio to control): 1.3 | The level of expressed mRNA in the presence of chemical substance/The level of expressed mRNA in the absence of chemical substance, yeast gene YDR297W (gene YDR297W, Metabolism protein genes, DNA chip fluorescence ratio): 1.5 | The level of expressed mRNA in the presence of chemical substance/The level of expressed mRNA in the absence of chemical substance, yeast gene YDR387C (gene YDR387C, Metabolism protein genes, DNA chip fluorescence ratio): 0.8 | The level of expressed mRNA in the presence of chemical substance/The level of expressed mRNA in the absence of chemical substance, yeast gene YGL035C (gene YGL035C, Metabolism protein genes, DNA chip fluorescence ratio): 0.7 | The level of expressed mRNA in the presence of chemical substance/The level of expressed mRNA in the absence of chemical substance, yeast gene YGR062C (gene YGR062C (mitochondria-located protein gene), yeast cultured two hours with chemical substance, DNA chip fluorescence ratio to control): 0.9 | The level of expressed mRNA in the presence of chemical substance/The level of expressed mRNA in the absence of chemical substance, yeast gene YGR287C (gene YGR287C, Metabolism protein genes, DNA chip fluorescence ratio): 1.3 | The level of expressed mRNA in the presence of chemical substance/The level of expressed mRNA in the absence of chemical substance, yeast gene YJL070C (gene YJL070C, Metabolism protein genes, DNA chip fluorescence ratio): 1.3 | The level of expressed mRNA in the presence of chemical substance/The level of expressed mRNA in the absence of chemical substance, yeast gene YJL096W (gene YJL096W (mitochondria-located protein gene), yeast cultured two hours with chemical substance, DNA chip fluorescence ratio to control): 1.0 | The level of expressed mRNA in the presence of chemical substance/The level of expressed mRNA in the absence of chemical substance, yeast gene YJL180C (gene YJL180C (mitochondria-located protein gene), yeast cultured two hours with chemical substance, DNA chip fluorescence ratio to control): 0.9 | The level of expressed mRNA in the presence of chemical substance/The level of expressed mRNA in the absence of chemical substance, yeast gene YKR009C (gene YKR009C, Metabolism protein genes, DNA chip fluorescence ratio): 1.0 | The level of expressed mRNA in the presence of chemical substance/The level of expressed mRNA in the absence of chemical substance, yeast gene YLR295C (gene YLR295C (mitochondria-located protein gene), yeast cultured two hours with chemical substance, DNA chip fluorescence ratio to control): 1.4 | The level of expressed mRNA in the presence of chemical substance/The level of expressed mRNA in the absence of chemical substance, yeast gene YLR351C (gene YLR351C, Metabolism protein genes, DNA chip fluorescence ratio): 1.0 | The level of expressed mRNA in the presence of chemical substance/The level of expressed mRNA in the absence of chemical substance, yeast gene YLR375W (gene YLR375W, Metabolism protein genes, DNA chip fluorescence ratio): 0.9 | The level of expressed mRNA in the presence of chemical substance/The level of expressed mRNA in the absence of chemical substance, yeast gene YMR023C (gene YMR023C (mitochondria-located protein gene), yeast cultured two hours with chemical substance, DNA chip fluorescence ratio to control): 1.4 | The level of expressed mRNA in the presence of chemical substance/The level of expressed mRNA in the absence of chemical substance, yeast gene YMR267W (gene YMR267W (mitochondria-located protein gene), yeast cultured two hours with chemical substance, DNA chip fluorescence ratio to control): 0.8 | The level of expressed mRNA in the presence of chemical substance/The level of expressed mRNA in the absence of chemical substance, yeast gene YMR267W (gene YMR267W, Metabolism protein genes, DNA chip fluorescence ratio): 0.8 | The level of expressed mRNA in the presence of chemical substance/The level of expressed mRNA in the absence of chemical substance, yeast gene YMR278W (gene YMR278W, Metabolism protein genes, DNA chip fluorescence ratio): 0.7 | The level of expressed mRNA in the presence of chemical substance/The level of expressed mRNA in the absence of chemical substance, yeast gene YMR293C (gene YMR293C, Metabolism protein genes, DNA chip fluorescence ratio): 0.9 | The level of expressed mRNA in the presence of chemical substance/The level of expressed mRNA in the absence of chemical substance, yeast gene YNL073W (gene YNL073W (mitochondria-located protein gene), yeast cultured two hours with chemical substance, DNA chip fluorescence ratio to control): 0.8 | The level of expressed mRNA in the presence of chemical substance/The level of expressed mRNA in the absence of chemical substance, yeast gene YNR072W (gene YNR072W, Metabolism protein genes, DNA chip fluorescence ratio): 1.1 | The level of expressed mRNA in the presence of chemical substance/The level of expressed mRNA in the absence of chemical substance, yeast gene YOL096C (gene YOL096C, Metabolism protein genes, DNA chip fluorescence ratio): 1.1 | The level of expressed mRNA in the presence of chemical substance/The level of expressed mRNA in the absence of chemical substance, yeast gene YOR180C (gene YOR180C, Metabolism protein genes, DNA chip fluorescence ratio): 0.8 | The level of expressed mRNA in the presence of chemical substance/The level of expressed mRNA in the absence of chemical substance, yeast gene YOR316C (gene YOR316C (mitochondria-located protein gene), yeast cultured two hours with chemical substance, DNA chip fluorescence ratio to control): 0.7 | The level of expressed mRNA in the presence of chemical substance/The level of expressed mRNA in the absence of chemical substance, yeast gene YOR363C (gene YOR363C, Metabolism protein genes, DNA chip fluorescence ratio): 0.8 | The level of expressed mRNA in the presence of chemical substance/The level of expressed mRNA in the absence of chemical substance, yeast gene YPL040C (gene YPL040C (mitochondria-located protein gene), yeast cultured two hours with chemical substance, DNA chip fluorescence ratio to control): 1.1 | The level of expressed mRNA in the presence of chemical substance/The level of expressed mRNA in the absence of chemical substance, yeast gene YPL134C (gene YPL134C (mitochondria-located protein gene), yeast cultured two hours with chemical substance, DNA chip fluorescence ratio to control): 1.5 | The level of expressed mRNA in the presence of chemical substance/The level of expressed mRNA in the absence of chemical substance, yeast gene YPR184W (gene YPR184W, Metabolism protein genes, DNA chip fluorescence ratio): 1.2 | level of expressed mRNA in the presence of chemical substance / level in the absence of chemical substance (yeast gene YAL018C): 2.0 | The level of expressed mRNA in the presence of chemical substance/The level of expressed mRNA in the absence of chemical substance (yeast gene YAL053W): 0.9 | level of expressed mRNA in the presence of chemical substance / level in the absence of chemical substance (yeast gene YAR047C): 1.1 | level of expressed mRNA in the presence of chemical substance / level in the absence of chemical substance (yeast gene YAR064W): 2.1 | level of expressed mRNA in the presence of chemical substance / level in the absence of chemical substance (yeast gene YBL044W): 0.9 | The level of expressed mRNA in the presence of chemical substance/The level of expressed mRNA in the absence of chemical substance (yeast gene YBL048W): 2.0 | The level of expressed mRNA in the presence of chemical substance/The level of expressed mRNA in the absence of chemical substance (yeast gene YBL107C): 1.4 | level of expressed mRNA in the presence of chemical substance / level in the absence of chemical substance (yeast gene YBR012C): 2.5 | level of expressed mRNA in the presence of chemical substance / level in the absence of chemical substance (yeast gene YBR066C): 1.9 | level of expressed mRNA in the presence of chemical substance / level in the absence of chemical substance (yeast gene YBR124W): 0.9 | level of expressed mRNA in the presence of chemical substance / level in the absence of chemical substance (yeast gene YBR162C): 0.6 | level of expressed mRNA in the presence of chemical substance / level in the absence of chemical substance (yeast gene YBR287W): 1.7 | level of expressed mRNA in the presence of chemical substance / level in the absence of chemical substance (yeast gene YCL056C): 1.3 | level of expressed mRNA in the presence of chemical substance / level in the absence of chemical substance (yeast gene YCR007C): 2.2 | level of expressed mRNA in the presence of chemical substance / level in the absence of chemical substance (yeast gene YDL046W): 1.2 | The level of expressed mRNA in the presence of chemical substance/The level of expressed mRNA in the absence of chemical substance (yeast gene YDL072C): 1.3 | The level of expressed mRNA in the presence of chemical substance/The level of expressed mRNA in the absence of chemical substance (yeast gene YDL204W): 1.4 | The level of expressed mRNA in the presence of chemical substance/The level of expressed mRNA in the absence of chemical substance (yeast gene YDL222C): 0.9 | level of expressed mRNA in the presence of chemical substance / level in the absence of chemical substance (yeast gene YDR090C): 0.9 | level of expressed mRNA in the presence of chemical substance / level in the absence of chemical substance (yeast gene YDR128W): 0.6
